Results published in patent US9527828B2, “Method for expanding hematopoietic stem cells using heterocyclic compound” (Nissan Chemical Industries, Ltd., priority 2007, dated 2016).

Tested on: CD34^+CD38^− cells
Assay: Expansion of CD34+CD38− cells from human cord blood-derived CD34+ cells (Example 2)
Assay type: cell-based
Conditions: 1 μg/mL compound, 50 ng/mL SCF, StemSpan SFEM, 7 days, based on number of CD34+CD38− cells in the absence of compound; for fold induction at 1 µg/mL: Homo sapiens, 168 h, read-out: Expansion efficiency
Protocol: The human cord blood-derived CD34^+ cells collected or purchased in Example 1 were plated on a 24-well plate (TPP) (10000 cells/1/mL/well). As the culture medium, StemSpan SFEM (Stemcell Technologies) containing 50 ng/mL SCF (Peprotech) was used, and Compounds No. 1 to 133 dissolved in dimethyl sulfoxide were added in an amount of 0.1% (v/v) to a final concentration of 1 μg/mL.
After the cells were incubated in liquid culture at 37° C. for 7 days in a CO2 incubator (5% CO2), the number of viable cells was counted by trypan blue assay. The number of CD34^+CD38^− cells was calculated as follows. After the incubation, the cells in the liquid culture was stained with a CD34 antibody (APC, Becton, Dickinson and Company) and a CD38 antibody (PE, Becton, Dickinson and Company), then washed with PBS(−) containing 2% (v/v) FBS and stained with propidium iodide (Sigma-Aldrich Japan) added to a final concentration of 5 μg/mL. The stained cells were analyzed with a flow cytometer JSAN (Bay Bioscience) to determined the proportion of CD34^+CD38^− cells, which was multiplied by the number of viable cells to calculate the number of CD34^+CD38^− cells.
The expansion efficiencies in the presence of 1 μg/mL of compounds based on the number of CD34^+CD38^− cells in the absence of them are shown in Tables 2 and 3 on a scale of A for expansion efficiencies of 10 or greater, B for expansion efficiencies of at least 5 and less than 10, and C for expansion efficiencies of at least 3 and less than 5.

SMILES | fold induction at 1 µg/mL | Expansion efficiency
C/C(=N\NC(=O)c1ccc(C(=O)NCc2cccc(C(N)=O)c2)s1)c1csc(-c2ccc(Br)cc2)c1O [compound 94] | ≥ 10 | 
C/C(=N\NC(=O)c1ccc(C(=O)NCc2cccc(C(N)=O)c2)s1)c1csc(-c2ccc(C(F)(F)F)cc2)c1O [compound 95] | ≥ 10 | 
C/C(=N\NC(=O)c1ccc(C(=O)NCc2cccc(C(N)=O)c2)s1)c1csc(-c2ccc(Cl)cc2)c1O [compound 96] | ≥ 10 | 
C/C(=N\NC(=O)c1ccc(C(=O)NCc2cccc(C(N)=O)c2)s1)c1csc(-c2ccc(OC(F)(F)F)cc2)c1O [compound 97] | ≥ 10 | 
COc1ccc(-c2scc(/C(C)=N/NC(=O)c3ccc(C(=O)NCc4cccc(C(N)=O)c4)s3)c2O)cc1 [compound 98] | ≥ 10 | 
C/C(=N\NC(=O)c1ccc(C(=O)NCc2ccccc2C(N)=O)s1)c1csc(-c2ccc(Cl)c(Cl)c2)c1O [compound 99] | ≥ 10 | 
C/C(=N\NC(=O)c1ccc(C(=O)NCc2ccccc2C(N)=O)s1)c1csc(-c2ccc(C(C)(C)C)cc2)c1O [compound 100] | 3 to 5 | 
C/C(=N\NC(=O)c1ccc(C(=O)NCc2ccccc2C(N)=O)s1)c1csc(-c2ccc(Br)cc2)c1O [compound 101] | ≥ 10 | 
C/C(=N\NC(=O)c1ccc(C(=O)NCc2ccccc2C(N)=O)s1)c1csc(-c2ccc(C(F)(F)F)cc2)c1O [compound 102] | ≥ 10 | 
C/C(=N\NC(=O)c1ccc(C(=O)NCc2ccccc2C(N)=O)s1)c1csc(-c2ccc(Cl)cc2)c1O [compound 103] | ≥ 10 | 
C/C(=N\NC(=O)c1ccc(C(=O)NCc2ccccc2C(N)=O)s1)c1csc(-c2ccc(OC(F)(F)F)cc2)c1O [compound 104] | ≥ 10 | 
COc1ccc(-c2scc(/C(C)=N/NC(=O)c3ccc(C(=O)NCc4ccccc4C(N)=O)s3)c2O)cc1 [compound 105] | 5 to 10 | 
CNC(=O)c1ccc(CNC(=O)c2ccc(C(=O)N/N=C(\C)c3csc(-c4ccc(Cl)c(Cl)c4)c3O)s2)cc1 [compound 106] | ≥ 10 | 
CNC(=O)c1ccc(CNC(=O)c2ccc(C(=O)N/N=C(\C)c3csc(-c4ccc(C(C)(C)C)cc4)c3O)s2)cc1 [compound 107] | ≥ 10 | 
CNC(=O)c1ccc(CNC(=O)c2ccc(C(=O)N/N=C(\C)c3csc(-c4ccc(Br)cc4)c3O)s2)cc1 [compound 108] | ≥ 10 | 
CNC(=O)c1ccc(CNC(=O)c2ccc(C(=O)N/N=C(\C)c3csc(-c4ccc(C(F)(F)F)cc4)c3O)s2)cc1 [compound 109] | ≥ 10 | 
CNC(=O)c1ccc(CNC(=O)c2ccc(C(=O)N/N=C(\C)c3csc(-c4ccc(Cl)cc4)c3O)s2)cc1 [compound 110] | ≥ 10 | 
CNC(=O)c1ccc(CNC(=O)c2ccc(C(=O)N/N=C(\C)c3csc(-c4ccc(OC(F)(F)F)cc4)c3O)s2)cc1 [compound 111] | ≥ 10 | 
CNC(=O)c1ccc(CNC(=O)c2ccc(C(=O)N/N=C(\C)c3csc(-c4ccc(OC)cc4)c3O)s2)cc1 [compound 112] | ≥ 10 | 
C/C(=N\NC(=O)c1ccc(C(=O)NC(C)c2ccc(C(N)=O)cc2)s1)c1csc(-c2ccc(Cl)c(Cl)c2)c1O (stereo not shown) [compound 113] | ≥ 10 | 

SMILES | fold induction at 1 µg/mL | Expansion efficiency
C/C(=N\NC(=O)c1ccc(C(=O)NC(C)c2ccc(C(N)=O)cc2)s1)c1csc(-c2ccc(C(C)(C)C)cc2)c1O (stereo not shown) [compound 114] | ≥ 10 | 
C/C(=N\NC(=O)c1ccc(C(=O)NC(C)c2ccc(C(N)=O)cc2)s1)c1csc(-c2ccc(Br)cc2)c1O (stereo not shown) [compound 115] | ≥ 10 | 
C/C(=N\NC(=O)c1ccc(C(=O)NC(C)c2ccc(C(N)=O)cc2)s1)c1csc(-c2ccc(C(F)(F)F)cc2)c1O (stereo not shown) [compound 116] | ≥ 10 | 
C/C(=N\NC(=O)c1ccc(C(=O)NC(C)c2ccc(C(N)=O)cc2)s1)c1csc(-c2ccc(Cl)cc2)c1O (stereo not shown) [compound 117] | ≥ 10 | 
C/C(=N\NC(=O)c1ccc(C(=O)NC(C)c2ccc(C(N)=O)cc2)s1)c1csc(-c2ccc(OC(F)(F)F)cc2)c1O (stereo not shown) [compound 118] | ≥ 10 | 
COc1ccc(-c2scc(/C(C)=N/NC(=O)c3ccc(C(=O)NC(C)c4ccc(C(N)=O)cc4)s3)c2O)cc1 (stereo not shown) [compound 119] | ≥ 10 | 
CC(=O)Nc1ccc(C(C)NC(=O)c2ccc(C(=O)N/N=C(\C)c3csc(-c4ccc(Cl)c(Cl)c4)c3O)s2)cc1 (stereo not shown) [compound 120] | ≥ 10 | 
CC(=O)Nc1ccc(C(C)NC(=O)c2ccc(C(=O)N/N=C(\C)c3csc(-c4ccc(C(C)(C)C)cc4)c3O)s2)cc1 (stereo not shown) [compound 121] | 5 to 10 | 
CC(=O)Nc1ccc(C(C)NC(=O)c2ccc(C(=O)N/N=C(\C)c3csc(-c4ccc(Br)cc4)c3O)s2)cc1 (stereo not shown) [compound 122] | ≥ 10 | 
CC(=O)Nc1ccc(C(C)NC(=O)c2ccc(C(=O)N/N=C(\C)c3csc(-c4ccc(C(F)(F)F)cc4)c3O)s2)cc1 (stereo not shown) [compound 123] | ≥ 10 | 
CC(=O)Nc1ccc(C(C)NC(=O)c2ccc(C(=O)N/N=C(\C)c3csc(-c4ccc(Cl)cc4)c3O)s2)cc1 (stereo not shown) [compound 124] | ≥ 10 | 
CC(=O)Nc1ccc(C(C)NC(=O)c2ccc(C(=O)N/N=C(\C)c3csc(-c4ccc(OC(F)(F)F)cc4)c3O)s2)cc1 (stereo not shown) [compound 125] | ≥ 10 | 
COc1ccc(-c2scc(/C(C)=N/NC(=O)c3ccc(C(=O)NC(C)c4ccc(NC(C)=O)cc4)s3)c2O)cc1 (stereo not shown) [compound 126] | ≥ 10 | 
C/C(=N\NC(=O)c1ccc(C(=O)NCc2cc(C)n(C)n2)s1)c1csc(-c2ccc(Br)cc2)c1O [compound 127] | ≥ 10 | 
C/C(=N\NC(=O)c1ccc(C(=O)NCc2cc(C)n(C)n2)s1)c1csc(-c2ccc(OC(F)(F)F)cc2)c1O [compound 128] | ≥ 10 | 
COc1ccc(-c2scc(/C(C)=N/NC(=O)c3ccc(C(=O)NCc4cc(C)n(C)n4)s3)c2O)cc1 [compound 129] | ≥ 10 | 
C/C(=N\NC(=O)c1ccc(C(=O)NCc2cn(C)cn2)s1)c1csc(-c2ccc(Br)cc2)c1O [compound 130] | ≥ 10 | 
C/C(=N\NC(=O)c1ccc(C(=O)NCc2cn(C)cn2)s1)c1csc(-c2ccc(C(F)(F)F)cc2)c1O [compound 131] |  | A (A for expansion efficiencies of 10 or greater)
C/C(=N\NC(=O)c1ccc(C(=O)NCc2cn(C)cn2)s1)c1csc(-c2ccc(Cl)cc2)c1O [compound 132] | ≥ 10 | 
COc1ccc(-c2scc(/C(C)=N/NC(=O)c3ccc(C(=O)NCc4cn(C)cn4)s3)c2O)cc1 [compound 133] | ≥ 10 | 
